# Measurements as given in article PMC10070635, “Targeting Enterococcus faecalis HMG-CoA reductase with a non-statin inhibitor” (Communications Biology, 2023).
# How the values were obtained:
# [1] = molecular target: T1, Enterococcus faecalis HMG-CoA reductase (efHMGR) (Enterococcus faecalis, UniProt A0A4U3MLJ4); test: X-ray co-crystal structure ([…] Å); assay type: binding
# T1 construct: gene EY666_03235; C-terminal domain (residues 381-803) of the mvaE gene product, N-terminal 6X-His tag
# [2] = molecular target: T1, Enterococcus faecalis HMG-CoA reductase (efHMGR); test: X-ray co-crystal structure ([…] Å); mevalonate oxidation enzyme assay with Ki (IC50 […]); assay type: biochemical
# [3] = molecular target: T1, Enterococcus faecalis HMG-CoA reductase (efHMGR); test: mevalonate oxidation assay, NADPH absorbance at […] nm; […] inhibition at […]; assay type: biochemical
# [4] = molecular target: T1, Enterococcus faecalis HMG-CoA reductase (efHMGR); test: X-ray crystal structure ([…] Å); assay type: binding
compound,measurement,setting,value
CC(C)(COP(=O)(O)OP(=O)(O)OC[C@H]1O[C@@H](n2cnc3c(N)ncnc32)[C@H](O)[C@@H]1OP(=O)(O)O)[C@@H](O)C(=O)NCCC(=O)NCCSC(=O)C[C@@](C)(O)CC(=O)O [HMG-CoA],X-ray co-crystal structure (2.27 Å),[1],HMG-CoA binds to the large domain of one monomer and NADP^+ to small domain of the other monomer
NC(=O)c1ccc[n+]([C@@H]2O[C@H](COP(=O)(O)OP(=O)(O)OC[C@H]3O[C@@H](n4cnc5c(N)ncnc54)[C@H](OP(=O)(O)O)[C@@H]3O)[C@@H](O)[C@H]2O)c1 [NADP+],X-ray co-crystal structure (2.27 Å),[1],NADP^+ is present in all the active sites and HMG-CoA in only one
"CCCCc1ccc(NS(=O)(=O)c2ccc(O)c(C(=O)O)c2)cc1 [compound 315, 5-{[(4-butylphenyl)amino]sulfonyl}-2-hydroxybenzoic acid]",Ki,[2],2000 nM
CC[C@H](C)C(=O)O[C@H]1C[C@@H](C)C=C2C=C[C@H](C)[C@H](CC[C@@H]3C[C@@H](O)CC(=O)O3)[C@H]21 [lovastatin],inhibition at 50 µM,[3],32%
C[C@@](O)(CCO)CC(=O)O [mevalonate],X-ray crystal structure (2.27 Å),[4],Density consistent with mevalonate is also found in one of the active sites.
